Structures are written as SMILES.

Assay [1] deals with CHOldlD/MUC1F-clone2 cells. In words: MUC1 expression in cell lysates, immunoprecipitation and SDS-PAGE western blot. In kind it is cell-based, Chinese Hamster. The settings on record: 2 mM, 48 hours. Background: Immunoblotting shows a protein as a band on a membrane.
Assay [2] deals with T1, GalNAc-T7 (Homo sapiens, UniProt Q86SF2).
T1 construct: made in house; host or cells: High Five insect cells (baculovirus)
T1 sequence (Q86SF2 30-657 limits assumed): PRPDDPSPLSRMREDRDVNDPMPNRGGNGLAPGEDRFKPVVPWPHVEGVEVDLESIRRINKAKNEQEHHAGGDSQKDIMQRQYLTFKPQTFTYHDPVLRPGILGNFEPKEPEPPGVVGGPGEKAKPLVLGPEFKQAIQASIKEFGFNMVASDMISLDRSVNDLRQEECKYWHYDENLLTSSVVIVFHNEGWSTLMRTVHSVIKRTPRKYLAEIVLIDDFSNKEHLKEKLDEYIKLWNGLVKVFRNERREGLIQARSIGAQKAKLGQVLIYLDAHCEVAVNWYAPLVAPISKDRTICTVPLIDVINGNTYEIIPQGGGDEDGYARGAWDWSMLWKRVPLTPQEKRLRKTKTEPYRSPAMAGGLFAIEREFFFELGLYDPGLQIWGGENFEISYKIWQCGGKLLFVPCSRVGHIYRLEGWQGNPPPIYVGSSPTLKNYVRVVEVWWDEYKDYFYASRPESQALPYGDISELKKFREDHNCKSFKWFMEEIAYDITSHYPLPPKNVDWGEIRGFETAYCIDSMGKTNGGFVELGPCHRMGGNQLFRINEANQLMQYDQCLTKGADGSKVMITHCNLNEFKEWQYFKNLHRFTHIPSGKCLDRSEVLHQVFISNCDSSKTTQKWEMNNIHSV
In words: Inhibition of GalNAc-T7 activity with GalNAc2-3EA2 substrate. The class given is biochemical. Particulars: 5 mM. On the procedure:
Standard reaction mixtures (50 μl final volume) contained 25 mM cocadylate (pH 7.4), 10 mM MnCl2, 0.25% Triton X-100, 200 μM UDP-[^14C]-GalNAc (2,000 cpm/nmol) (Amersham), 200-500 μM acceptor peptides. Products were quantified by scintillation counting after chromatography on Dowex-1, octadecyl silica cartridges (Bakerbond), or HPLC (PC3.2/3 or mRPC C2/C18 SC2.1/10 Pharmacia, Smart System). […] Glycopeptides were purified on Supelclean LC-18 columns (1 ml, Supelco), and the number of GalNAc residues incorporated evaluated by MALDI-TOF mass spectrometry. The enzyme sources used were semipurified as previously described by successive sequential ion-exchange chromatographies on Amberlite (IRA95, Sigma) or DEAE Sephacel (Pharmacia), S-Sepharose Fast Flow (Pharmacia), and Mini-S™ (PC 3.2/3, Pharmacia) using the Smart System (Pharmacia) (28). Secreted GalNAc-T4 was obtained from a stably transfected CHO line (CHO/GalNA-T4/21A) (8) grown in roller bottles in HAMS F12 supplemented with 10% Fetal Bovine Serum. The experiments illustrated in FIG. 1 was performed with recombinant secreted GalNAc-T4 obtained from a stably transfected CHO line (8). Experiments illustrated in FIGS. 2 and 3 were performed with secreted GalNAc-T4 expressed in High Five cells grown in serum-free medium (8). Structural analysis of glycopeptides were performed by a combination of PFPA (pentafluoropropionic acid) hydrolysis and MALDI-TOF mass spectrometry as previously described (40). Secreted GalNAc-T7 was obtained from infected High Five™ cells grown in serum-free medium (Invitrogen) in upright roller bottles shaken 140 rpm in waterbaths at 27° C. GalNAc-T7 was not purified by Mini-S as the yields from cationic chromatography were low due to its low pI (6.4).
GalNAc-T7 activity was analysed with GalNAc glycosylated glycopeptides (represented by GalNAc2-3EA2 (7)) in reactions of 25 μl containing 2.5 nmol acceptor (glyco)peptide, 40 nmol UDP-GalNAc, and purified GalNAc-T7. […]

The subject of assay [3] is wild type CHO/MUC1sol-cloneC4. Description: Secretion of MUC1, western blot of medium. In kind it is cell-based, Chinese Hamster. The settings on record: 1-2 mM; compared to control treated or non-treated cells. On the procedure: In order to characterize the secreted MUC1 product SDS-PAGE western blot analysis of harvested culture medium of confluent cultures were performed. Ten to twenty μL culture supernatant was analysed directly or treated with 0.1 U/mL neuraminidase (C. Perfringes VI, Sigma) for 30-60 min at 37° C. Samples were mixed with SDS sample buffer, reduced with DTT, and run on precast 4-20% gels (Biorad). As shown in FIG. 9 anti-MUC1 antibodies detected two forms of MUC1 in the medium; a low molecular weight form migrating as 130-140 kd corresponding to unglycosylated product, and a high molecular weight form migrating above 250 kd. The high molecular weight form was sensitive to neuraminidase treatment as evidenced by a marked shift and retardation in migration. […]
Because GalNAcα-benzyl exerts separate effects on O-glycan processing and mucin expression, the use of the novel selective inhibitor of mucin expression, GalNAcβ-benzyl, allow analysis of mucin expression and secretion in different cell line models. […] Most human adenocarcinoma cell lines express and secret mucins and analysis with antibodies to detect protein expression or probes to detect mRNA can reveal the types and quantities of mucins. […] The inhibitory effect on mucin secretion can be quantified by a number of assays known to the skilled in the art including western blot, ELISA, gelfiltration, immunocapture, and other assays.

On to `CC(=O)N[C@H]1[C@@H](OCc2ccccc2)O[C@H](CO)[C@H](O)[C@@H]1O` [GalNAcα-benzyl], for which, in assay [1] (IP HMFG2, blot 5E5), the MUC1 expression result is “significant reduction in MUC1 expression”. In addition, the “SDS-PAGE migration of MUC1 (O-glycosylation)” value in assay [1] (cells grown in Gal and GalNAc, blot 5E5) was “marked shift in migration”. In assay [2], the “Inhibition of GalNAc-T7 activity with GalNAc2-3EA2” value is reported as “significantly inhibited”. Moreover, the “Secreted MUC1 in medium” value in assay [3] is on record as “inhibition of secreted MUC1”.

The values above are taken from patent publication US7338932B2, “Methods of modulating functions of polypeptide GalNAc-transferases and of screening test substances to find agents herefor, pharmaceutical compositions comprising such agents and the use of such agents for preparing medicaments” (Glycozym APS, priority 2000, dated 2008).
